Experiment [1] deals with asymmetric di-methyl PABP1 in RKO cells. Description: RKO methylation assay, In Cell Western (ICW) for asymmetric di-methyl PABP1. The following applies: Homo sapiens, RKO, Cellular potencies, ICW PABP1me2a. The class given is cell-based. A digest of the protocol:
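RKO cells treated with compound for 48 h at 37 °C, then fixed, permeabilized and immunostained for asymmetric di-methyl PABP1, with DRAQ5 as DNA stain. Infrared 700/800 nm signal ratio normalized to DMSO and 20 μM reference-compound controls; IC50 from triplicate wells.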

In experiment [2] the test system is NCI-H929 cells. Put plainly: Human myeloma cell line 14-day proliferation assay, NCI-H929. The experiment is classed as cell-based. As to conditions: NCI-H929 Human Multiple Myeloma cell line, varying doses, 14-day proliferation assay (FIG. 1A). Here is the method:
(§1) FIGS. 1A and 1B show cell proliferation in response to the presence of compounds of the current invention. Human Multiple Myeloma cell lines NCI-H929 (FIG. 1A) and U266B1 (FIG. 1B) were treated with varying doses of 304-1a (medium grey data points), 23-3 (light grey data points), and 113-3 (black data points) in a 14-day proliferation assay. At the end of the experiment, total cell number was determined for each cell line for different doses of 304-1a, 23-3, and 113-3.
(§2) Human Multiple Myeloma cell lines NCI-H929 (FIG. 1A) and U266B1 (FIG. 1B) were treated with varying doses of 304-1a (medium grey data points), 23-3 (light grey data points), and 113-3 (black data points) in a 14-day proliferation assay. At the end of the experiment, total cell number was determined for each cell line for different doses of 304-1a, 23-3, and 113-3.

The test system of experiment [3] is U266B1 cells. Description: Human myeloma cell line 14-day proliferation assay, U266B1. The class given is cell-based. As to conditions: U266B1 Human Multiple Myeloma cell line, varying doses, 14-day proliferation assay (FIG. 1B). Here is the method: as §1, §2
Experiment [4] addresses human CARM1 (PRMT4) (Homo sapiens (Human), UniProt Q86X55). Put plainly: CARM1 enzyme assay on peptide substrate (3H-SAM Flashplate). As to conditions: Biochemical potencies, read-out: Biochem IC50.

The values that follow come from US10633389B2, “CARM1 inhibitors and uses thereof” (Epizyme, Inc., priority 2013, dated 2020).

The term IC50 denotes the concentration needed to halve the response being measured.

Sequence of human CARM1 (PRMT4) (Q86X55 other isoform, or with tags, fused parts or gaps isoform Q86X55-1): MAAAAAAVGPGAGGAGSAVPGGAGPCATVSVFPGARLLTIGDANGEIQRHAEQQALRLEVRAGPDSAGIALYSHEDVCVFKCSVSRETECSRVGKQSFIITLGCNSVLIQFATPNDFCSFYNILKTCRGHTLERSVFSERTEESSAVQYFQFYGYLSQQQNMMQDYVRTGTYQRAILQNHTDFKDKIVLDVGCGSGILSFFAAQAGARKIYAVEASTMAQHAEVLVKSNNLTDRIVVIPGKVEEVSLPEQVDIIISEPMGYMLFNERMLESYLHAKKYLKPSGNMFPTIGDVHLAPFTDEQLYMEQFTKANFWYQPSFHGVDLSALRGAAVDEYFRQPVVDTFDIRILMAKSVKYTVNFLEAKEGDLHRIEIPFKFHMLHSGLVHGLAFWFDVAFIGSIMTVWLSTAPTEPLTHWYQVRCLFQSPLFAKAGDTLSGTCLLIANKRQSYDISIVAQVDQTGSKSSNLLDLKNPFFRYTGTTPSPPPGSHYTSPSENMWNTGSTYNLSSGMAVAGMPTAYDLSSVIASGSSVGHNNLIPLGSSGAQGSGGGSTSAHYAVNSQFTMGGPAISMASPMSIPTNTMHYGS

As to `CNC[C@@H](O)COc1ccc(Cl)c(-c2nc(-c3c(C)noc3C)c(C)c(N3Cc4cccnc4C3)n2)c1` [Example 113-3], in experiment [1], the IC50 was < 5 µM. Besides, the “cell proliferation (total cell number)” value in experiment [2] and in experiment [3] was “decreased the proliferation” in each case.
`CNC[C@@H](O)COc1ccc(Cl)c(-c2nc(NC3CCN(C(=O)OC)CC3)c(Cl)c(-c3c(C)noc3C)n2)c1` [Example 304-1a]: the IC50 in experiment [1] was < 5 µM. Further, the “cell proliferation (total cell number)” value in experiment [2] and in experiment [3] was “decreased the proliferation” throughout.
As for `CCOC(=O)N1CCOC[C@@H]1CNc1nc(-c2cc(OC[C@H](O)CNC)ccc2Cl)nc(-c2c(C)noc2C)c1C` [Example 23-3], in experiment [1], the IC50 is < 5 µM. The “cell proliferation (total cell number)” value in experiment [2] and in experiment [3] was “decreased the proliferation” in each case.
`CNCC(O)COc1cccc(-c2nc(NC3CCOCC3)cc(-c3ccc(C(F)(F)F)nc3)n2)c1` (stereo not shown) [Example 654-1a]: the IC50 in experiment [4] is 0.1 to 1 µM; in experiment [1] it was ≥ 20 µM.
For `CNCC(O)COc1cccc(-c2nc(N[C@@H]3CC[C@H](C(=O)NC)C3)c(C)c(N3CCOCC3)n2)c1` (stereo partly shown) [Example 680-1a], the IC50 is 0.1 to 1 µM in experiment [4] and ≥ 20 µM in experiment [1].
With `CCN1CCN(c2nc(-c3cccc(OCC(O)CNC)c3)nc(NC3CCOCC3)c2C)CC1` (stereo not shown) [Example 641-1a], the IC50 in experiment [4] is 0.1 to 1 µM; in experiment [1], ≥ 20 µM.
Consider `CNCC(O)COc1cccc(-c2nc(C(=O)NC3CCOCC3)cc(N(C)C3CCOCC3)n2)c1` (stereo not shown) [Example 530-1a], for which the IC50 lay in the range of 0.1 to 1 µM in experiment [4] and 5 to 10 µM in experiment [1].
For the compound `CNCC(O)COc1cccc(-c2nc(-c3c(C)n[nH]c3C)c(C)c(-c3c(C)noc3C)n2)c1` (stereo not shown) [Example 26-1a], the IC50 in experiment [4] is 1 to 3 µM; in experiment [1] it was 10 to 20 µM.
In the same order, the values of `CNCC(O)COc1cccc(-c2nc(N[C@@H]3CCOC3)c(C)c(N3CCC(OCCOC)CC3)n2)c1` (stereo partly shown) [Example 386-1a] are 3 to 10 µM and 10 to 20 µM.
As for `CNCC(O)COc1cccc(-c2nc(N3CCC4(CCOC4)CC3)cc(N(C)C3CCOCC3)n2)c1` (stereo not shown) [Example 582-1a], the figures for the IC50 in experiment [4] and in experiment [1] were 0.1 to 1 µM and 10 to 20 µM, respectively.
Regarding `CNCC(O)COc1cccc(-c2nc(NC3CCOCC3)c(C)c(-c3c(C)nn(C)c3C)n2)c1` (stereo not shown) [Example 678-1a], the IC50 was 0.1 to 1 µM in experiment [4] and ≥ 20 µM in experiment [1].
For the compound `CNCC(O)COc1cccc(-c2nc(N[C@@H]3CCOC3)c(C)c(N3CCNC(=O)C3)n2)c1` (stereo partly shown) [Example 380-1a], the results for the IC50 in experiment [4] and in experiment [1] were 0.1 to 1 µM and 10 to 20 µM, respectively.
In the case of `CNCC(O)COc1cccc(-c2nc(C(=O)N3CCOCC3)cc(N(C)C3CCOCC3)n2)c1` (stereo not shown) [Example 604-1a], the results for the IC50 in experiment [4] and in experiment [1] were 1 to 3 µM and 10 to 20 µM, respectively.
The corresponding values for `CNCC(O)COc1cccc(-c2nc(C(=O)N(C)C)cc(-c3c(C)noc3C)n2)c1` (stereo not shown) [Example 63-1a] are 1 to 3 µM and 10 to 20 µM.
For `CNCC(O)COc1cccc(-c2nc(N[C@H]3CCOC3)c(C)c(C3CCOCC3)n2)c1` (stereo partly shown) [Example 347-1a], the results for the half-inhibitory concentration (IC50) in experiment [4] and in experiment [1] were 0.1 to 1 µM and 10 to 20 µM, respectively.
`CNCC(O)COc1cccc(-c2nc(NC3(C)CCOCC3)cc(N3CCOCC3)n2)c1` (stereo not shown) [Example 684-1a]: the results for the IC50 in experiment [4] and in experiment [1] were 1 to 3 µM and ≥ 20 µM, respectively.
With `CNCC(O)COc1cccc(-c2nc(N[C@@H]3CCOC3)c(C)c(C(=O)NCC3CCOCC3)n2)c1` (stereo partly shown) [Example 346-1a], the IC50 in experiment [4] fell in the range of 0.1 to 1 µM; in experiment [1] it was 10 to 20 µM.
In the same order, the values of `CNCC(O)COc1cccc(-c2nc(NC3CCOCC3)c(C)c(N3CCNC(C)(C)C3)n2)c1` (stereo not shown) [Example 664-1a] are 0.1 to 1 µM and ≥ 20 µM.
With `CNCC(O)COc1cccc(-c2nc(N[C@@H]3CCOC3)c(C)c(-c3c(C)nn(C)c3C)n2)c1` (stereo partly shown) [Example 354-1a], the results for the IC50 in experiment [4] and in experiment [1] were 0.1 to 1 µM and 10 to 20 µM, respectively.
On to `CNCC(O)COc1cccc(-c2nc(C(=O)N(C)C)cc(N(C)C3CCOCC3)n2)c1` (stereo not shown) [Example 593-1a], for which the IC50 lay in the range of 0.1 to 1 µM in experiment [4] and 10 to 20 µM in experiment [1].
